Columns and labels:
rice [1] = assay: Test B flooded paddy test; format: in vivo, Oryza sativa; conditions: 1000 g ai/ha, visual rating, scale 0 to 100 (0 no effect, 100 complete control), 13 to 15 days
How it was run: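 Scale 0–100: zero equals no visible effect, 100 complete control, judged by eye relative to controls. Timing: 13 to 15 days in greenhouse post-treatment. Growth stage at spraying: two leaves (paddy) or one to four leaves, 2–18 cm (postemergence).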

velvetleaf [2] = assay: Test B pre-/postemergence herbicide test; format: in vivo, Abutilon theophrasti; conditions: for Velvetleaf plant response rating: postemergence, visual rating, scale 0 (no effect) to 100 (complete control)
How it was run: (§1)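 Formulation: non-phytotoxic solvent mix with surfactant. Timing: preemergence on seed and postemergence on 2–18 cm plants, applied concurrently. Readout after 13–15 d greenhouse: visual 0–100 control rating against controls.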

blackgrass = assay: Test B postemergence herbicide test; format: in vivo, Alopecurus myosuroides; conditions: postemergence, visual rating, scale 0 (no effect) to 100 (complete control)
How it was run: (§2)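 Paddy species grown to the 2-leaf stage under flooding; blackgrass sprayed postemergence at 2–18 cm (1- to 4-leaf stage). Plants kept in a greenhouse for 13 to 15 days, then visually rated against controls on 0 (no effect) to 100 (complete control).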

redroot pigweed = assay: Test A pre-/postemergence herbicide test; format: in vivo, Amaranthus retroflexus
How it was run: (§3)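 Sandy loam soil given preemergence directed spray; plants at 2 to 10 cm, one- to two-leaf stage, sprayed to runoff postemergence, compounds in non-phytotoxic solvent with surfactant. Injury rated visually versus untreated controls after about ten greenhouse days, 0 (no effect) to 100 (complete control); dash means not tested.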

wild oat = assay: Test B postemergence herbicide test; format: in vivo, Avena fatua; conditions: postemergence, visual rating, scale 0 (no effect) to 100 (complete control)
How it was run: (§4)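 Read-out: visual comparison with controls, scored 0 to 100, where 100 means complete control and 0 no effect. Formulated chemicals were applied postemergence to plants 2–18 cm tall (1- to 4-leaf), or to flooded-paddy plants at the 2-leaf stage, then held 13 to 15 days under glass.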

rice [3] = assay: Test B pre-/postemergence herbicide test; format: in vivo, Oryza sativa; conditions: preemergence
How it was run: as §1

corn = assay: Test B pre-/postemergence herbicide test; format: in vivo, Zea mays; conditions: for Corn plant response rating: postemergence, visual rating, scale 0 (no effect) to 100 (complete control)
How it was run: as §1

cocklebur = assay: Test B pre-/postemergence herbicide test; format: in vivo, Xanthium strumarium; conditions: for Cocklebur plant response rating: postemergence, visual rating, scale 0 (no effect) to 100 (complete control)
How it was run: (§5)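 Test chemicals in a non-phytotoxic solvent mixture with surfactant were applied preemergence to seeded species and postemergence to plants 2-18 cm tall (1- to 4-leaf stage); rice and barnyardgrass were also tested in a flooded paddy at the 2-leaf stage. Visual rating versus controls after 13-15 days in greenhouse, scale 0 (no effect) to 100 (complete control).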

giant foxtail [4] = assay: Test B pre-/postemergence herbicide test; format: in vivo, Setaria faberi; conditions: for Foxtail, Giant plant response rating: postemergence, visual rating, scale 0 (no effect) to 100 (complete control)
How it was run: as §1

barnyardgrass [5] = assay: Test B pre-/postemergence herbicide test; format: in vivo, Echinochloa crus-galli; conditions: for Barnyardgrass plant response rating: postemergence, visual rating, scale 0 (no effect) to 100 (complete control)
How it was run: as §5

ducksalad = assay: Test B flooded paddy test; format: in vivo, Heteranthera limosa; conditions: 1000 g ai/ha, visual rating, scale 0 to 100 (0 no effect, 100 complete control), 13 to 15 days
How it was run: as §2

barnyardgrass [6] = assay: Test B flooded paddy test; format: in vivo, Echinochloa crus-galli; conditions: 1000 g ai/ha, visual rating, scale 0 to 100 (0 no effect, 100 complete control), 13 to 15 days
How it was run: as §2

large crabgrass [7] = assay: Test A pre-/postemergence herbicide test; format: in vivo, Digitaria sanguinalis
How it was run: as §3

morningglory [8] = assay: Test A pre-/postemergence herbicide test; format: in vivo, Ipomoea spp.
How it was run: as §3

barnyardgrass [9] = assay: Test A pre-/postemergence herbicide test; format: in vivo, Echinochloa crus-galli
How it was run: as §3

lambsquarters = assay: Test B pre-/postemergence herbicide test; format: in vivo, Chenopodium album; conditions: for Lambsquarters plant response rating: postemergence, visual rating, scale 0 (no effect) to 100 (complete control)
How it was run: as §1

velvetleaf [10] = assay: Test A pre-/postemergence herbicide test; format: in vivo, Abutilon theophrasti
How it was run: as §3

large crabgrass [11] = assay: Test B pre-/postemergence herbicide test; format: in vivo, Digitaria sanguinalis; conditions: for Crabgrass, Large plant response rating: postemergence, visual rating, scale 0 (no effect) to 100 (complete control)
How it was run: as §1

pigweed = assay: Test B pre-/postemergence herbicide test; format: in vivo, Amaranthus retroflexus; conditions: for Pigweed plant response rating: postemergence, visual rating, scale 0 (no effect) to 100 (complete control)
How it was run: as §1

Surinam grass = assay: Test B pre-/postemergence herbicide test; format: in vivo, Urochloa decumbens; conditions: for Surinam Grass plant response rating: postemergence, visual rating, scale 0 (no effect) to 100 (complete control)
How it was run: as §1

morningglory [12] = assay: Test B pre-/postemergence herbicide test; format: in vivo, Ipomoea coccinea; conditions: for Morningglory plant response rating: postemergence, visual rating, scale 0 (no effect) to 100 (complete control)
How it was run: as §5

[13] = tested on: small flower umbrella sedge; assay: Test B flooded paddy test; format: in vivo, Cyperus difformis; conditions: 1000 g ai/ha, visual rating, scale 0 to 100 (0 no effect, 100 complete control), 13 to 15 days
How it was run: as §2

giant foxtail [14] = assay: Test A pre-/postemergence herbicide test; format: in vivo, Setaria faberi
How it was run: as §3

wheat = assay: Test B postemergence herbicide test; format: in vivo, Triticum aestivum; design: key to Wheat plant response rating: 0 = no effect, 100 = complete control; conditions: postemergence, visual rating, scale 0 (no effect) to 100 (complete control)
How it was run: as §4

[15] = 125 g ai/ha, 0 = no effect, 100 = complete control, preemergence
[16] = 500 g ai/ha, visual rating 0-100, 0 no effect, 100 complete control, preemergence
[17] = Postemergence, 500 g ai/ha, 0 to 100 scale, 0 no effect, 100 complete control
[18] = Postemergence, 2000 g ai/ha, 0 to 100 scale, 0 no effect, 100 complete control
[19] = Preemergence, 2000 g ai/ha, visual rating, 0 to 100 scale (0 no effect, 100 complete control)
[20] = preemergence, 500 g ai/ha, visual injury, 0 to 100 scale (0 no effect, 100 complete control)

CCc1nc(C(C)(C)C)sc1C(=O)Nc1cccc(C(=O)NCC(F)(F)F)c1 [Compound 206]
Rice plant response rating (rice [1]): 30
Velvetleaf plant response rating (0 to 100 scale) (velvetleaf [2]; [15]): 0
Plant response rating, Velvetleaf (velvetleaf [2]; [16]): 10
Velvetleaf plant response rating (velvetleaf [2]; 125 g ai/ha): 20
Velvetleaf plant response rating (velvetleaf [2]; 500 g ai/ha): 20
Blackgrass plant response rating (blackgrass; 125 g ai/ha): 0
Blackgrass plant response rating (blackgrass; 500 g ai/ha): 20
Pigweed plant response rating (redroot pigweed; [17]): 15
Plant response rating, Pigweed (redroot pigweed; [18]): 20
Pigweed plant response rating (redroot pigweed; [19]): 60
Pigweed plant response rating (redroot pigweed; [20]): 25
Oat, Wild plant response rating (wild oat; 125 g ai/ha): 20
Oat, Wild plant response rating (wild oat; 500 g ai/ha): 20
Rice plant response rating (0 to 100 scale) (rice [3]; 125 g ai/ha, 0 = no effect, 100 = complete control): 0
Plant response rating, Rice (rice [3]; 500 g ai/ha, visual rating 0-100, 0 no effect, 100 complete control): 30
Corn plant response rating (0 to 100 scale) (corn; [15]): 0
Plant response rating, Corn (corn; [16]): 40
Corn plant response rating (corn; 125 g ai/ha): 20
Corn plant response rating (corn; 500 g ai/ha): 20
Cocklebur plant response rating (0 to 100 scale) (cocklebur; [15]): 0
Plant response rating, Cocklebur (cocklebur; [16]): 0
Cocklebur plant response rating (cocklebur; 125 g ai/ha): 20
Cocklebur plant response rating (cocklebur; 500 g ai/ha): 40
Foxtail, Giant plant response rating (0 to 100 scale) (giant foxtail [4]; [15]): 0
Plant response rating, Foxtail, Giant (giant foxtail [4]; [16]): 20
Foxtail, Giant plant response rating (giant foxtail [4]; 125 g ai/ha): 20
Foxtail, Giant plant response rating (giant foxtail [4]; 500 g ai/ha): 20
Barnyardgrass plant response rating (0 to 100 scale) (barnyardgrass [5]; [15]): 10
Plant response rating, Barnyardgrass (barnyardgrass [5]; [16]): 70
Barnyardgrass plant response rating (barnyardgrass [5]; 125 g ai/ha): 0
Barnyardgrass plant response rating (barnyardgrass [5]; 500 g ai/ha): 10
Ducksalad plant response rating (ducksalad): 40
Barnyardgrass plant response rating (barnyardgrass [6]): 10
Crabgrass, Large plant response rating (large crabgrass [7]; [17]): 0
Plant response rating, Crabgrass, Large (large crabgrass [7]; [18]): 5
Crabgrass, Large plant response rating (large crabgrass [7]; [19]): 20
Crabgrass, Large plant response rating (large crabgrass [7]; [20]): 20
Morningglory plant response rating (morningglory [8]; [17]): 0
Plant response rating, Morningglory (morningglory [8]; [18]): 0
Morningglory plant response rating (morningglory [8]; [19]): 25
Morningglory plant response rating (morningglory [8]; [20]): 5
Barnyardgrass plant response rating (barnyardgrass [9]; [17]): 5
Plant response rating, Barnyardgrass (barnyardgrass [9]; [18]): 10
Barnyardgrass plant response rating (barnyardgrass [9]; [19]): 60
Barnyardgrass plant response rating (barnyardgrass [9]; [20]): 10
Lambsquarters plant response rating (0 to 100 scale) (lambsquarters; [15]): 0
Plant response rating, Lambsquarters (lambsquarters; [16]): 30
Lambsquarters plant response rating (lambsquarters; 125 g ai/ha): 30
Lambsquarters plant response rating (lambsquarters; 500 g ai/ha): 80
Velvetleaf plant response rating (velvetleaf [10]; [17]): 5
Plant response rating, Velvetleaf (velvetleaf [10]; [18]): 20
Velvetleaf plant response rating (velvetleaf [10]; [19]): 10
Velvetleaf plant response rating (velvetleaf [10]; [20]): 15
Crabgrass, Large plant response rating (0 to 100 scale) (large crabgrass [11]; [15]): 10
Plant response rating, Crabgrass, Large (large crabgrass [11]; [16]): 60
Crabgrass, Large plant response rating (large crabgrass [11]; 125 g ai/ha): 10
Crabgrass, Large plant response rating (large crabgrass [11]; 500 g ai/ha): 30
Pigweed plant response rating (0 to 100 scale) (pigweed; [15]): 0
Plant response rating, Pigweed (pigweed; [16]): 80
Pigweed plant response rating (pigweed; 125 g ai/ha): 30
Pigweed plant response rating (pigweed; 500 g ai/ha): 40
Surinam Grass plant response rating (0 to 100 scale) (Surinam grass; [15]): 0
Plant response rating, Surinam Grass (Surinam grass; [16]): 20
Surinam Grass plant response rating (Surinam grass; 125 g ai/ha): 10
Surinam Grass plant response rating (Surinam grass; 500 g ai/ha): 20
Morningglory plant response rating (0 to 100 scale) (morningglory [12]; [15]): 0
Plant response rating, Morningglory (morningglory [12]; [16]): 20
Morningglory plant response rating (morningglory [12]; 125 g ai/ha): 20
Morningglory plant response rating (morningglory [12]; 500 g ai/ha): 20
Sedge, Umbrella plant response rating [13]: 50
Foxtail, Giant plant response rating (giant foxtail [14]; [17]): 0
Plant response rating, Foxtail, Giant (giant foxtail [14]; [18]): 0
Foxtail, Giant plant response rating (giant foxtail [14]; [19]): 20
Foxtail, Giant plant response rating (giant foxtail [14]; [20]): 0
Wheat plant response rating (wheat; 125 g ai/ha): 20
Wheat plant response rating (wheat; 500 g ai/ha): 20

— patent US20060069132A1, “Azolecarboxamide herbicides” (priority 2004, published 2006)
